Assay results published in PubChem BioAssay (NCI).
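Five compound concentrations were applied to cells in 96-well plates for 48 hours; endpoints were derived by simple linear interpolation of the resulting dose-response curve. At the TGI there is no net growth.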

What was measured:
Test in all cases: DTP human tumour cell line panel, 48 h
[1] = system: COLO 205 colon
[2] = system: PC-3 prostate
[3] = system: CAKI-1 renal
[4] = system: NCI/ADR-RES ovarian
[5] = system: HL-60(TB) leukemia
[6] = system: HOP-92 NSCLC
[7] = system: M14 melanoma
[8] = system: SK-MEL-2 melanoma
[9] = system: SK-MEL-28 melanoma
[10] = system: MOLT-4 leukemia

SMILES | TGI [1] | TGI [2] | TGI [3] | TGI [4] | TGI [5] | TGI [6] | TGI [7] | TGI [8] | TGI [9] | TGI [10]
O=c1[nH]c2cc([N+](=O)[O-])c(Nc3c4ccccc4nc4ccccc34)c([N+](=O)[O-])c2[nH]1 | 6.97 µM | 15.2 µM | 7.96 µM | 10.9 µM | 9.39 µM | 18.5 µM | 5.14 µM | 8.6 µM | 12.9 µM | 5.02 µM
COc1cc2oc(-c3ccc4c(c3)OCO4)c(OC)c(=O)c2c(O)c1OC | > 50 µM | > 50 µM | > 50 µM | > 50 µM | > 50 µM | > 50 µM | > 50 µM | > 50 µM | > 50 µM | > 50 µM
Cn1c2ccc(C3=NCCN3)cc2c2cc(C3=NCCN3)ccc21 | > 100 µM | > 100 µM | > 100 µM | > 100 µM |  | 63.7 µM | > 100 µM | > 100 µM | > 100 µM | > 100 µM
COc1cc2oc(=O)cc(C)c2cc1OC | > 100 µM | > 100 µM |  | > 100 µM |  |  | > 100 µM | > 100 µM | > 100 µM | > 100 µM
N#C/C(C(=O)Nc1ccccc1)=C(/N)N1CCCCC1 | > 100 µM | > 100 µM | > 100 µM | > 100 µM |  | > 100 µM | > 100 µM | > 100 µM | > 100 µM | > 100 µM
CCOC(=O)CCC(NC(=O)OCc1ccccc1)C(=O)NC(CCC(=O)OCC)C(=O)NC(CCC(=O)OCC)C(=O)NNC(=O)OC(C)(C)C (centres undefined) | > 100 µM | > 100 µM |  |  | > 100 µM | > 100 µM | > 100 µM | > 100 µM | > 100 µM | > 100 µM
CC(C)(Cc1ccccc1)N1C(=O)N1C(C)(C)Cc1ccccc1 | 77.8 µM | > 100 µM | > 100 µM | > 100 µM | 41.7 µM |  | > 100 µM | 48.4 µM | > 100 µM | 55.6 µM
N#Cc1c(N2CCN(c3ccc([N+](=O)[O-])cc3)CC2)[n+](=O)c2ccc(-c3ccc([N+](=O)[O-])cc3)cc2n1[O-] | > 100 µM | > 100 µM | > 100 µM | > 100 µM |  | > 83.9 µM | > 58.9 µM | > 100 µM | > 100 µM | > 100 µM
C=CCc1ccccc1C1CC2(C(=O)OC)OC1C(C(=O)OC)=C2C(=O)OC (centres undefined) | > 10 µM | > 10 µM | > 10 µM | > 10 µM | > 10 µM |  | > 10 µM | > 10 µM | > 10 µM | > 10 µM
O=[N+]([O-])c1ccc2nc(/C=C(\O)c3ccc(Cl)cc3)c(/C=C(\O)c3ccc(Cl)cc3)nc2c1 | > 100 µM | > 100 µM | > 100 µM | > 100 µM |  |  | > 100 µM | > 100 µM |  | > 100 µM
CC(=Nc1cc(Cl)cc(Cl)c1)c1ccncc1 | > 100 µM | > 100 µM | > 100 µM | > 100 µM |  | > 100 µM | > 100 µM | > 100 µM | > 100 µM | > 100 µM
O=C1/C(=C/c2ccc(O)cc2)CCC1CNc1ccccc1 (centres undefined) | 16.1 µM | 23.7 µM | 26.5 µM | 37.1 µM | 4.91 µM | 27.9 µM | 28.1 µM |  | 29.9 µM | 
